{"source": "patent US20190328772A1", "about": "“OPHTHALMIC COMPOSITIONS COMPRISING A CYCLODEXTRIN AS SOLE ACTIVE AGENT” (priority 2016, published 2019)", "origin": "cited, not measured here", "key": {"[1]": {"test_system": "corneal epithelium of rabbits"}, "[2]": {"test_system": "drusen", "settings": "37° C., 24 hours"}, "[3]": {"test_system": "mouse brown fat tissue", "settings": "concentrations of 25-40%, 24 hours"}}, "note": "Like-named read-outs stand apart in the source and are kept apart here.", "data": [{"molecule": "randomly methylated β-CD [RM-β-CD]", "values": [{"measurement": "toxicity to the corneal epithelium of rabbits", "setting": "[1]; concentration 5%", "value": "can be toxic"}]}, {"molecule": "β-Cyclodextrin sulfobutyl ether [SBE-β-CD]", "values": [{"measurement": "toxicity or irritation in rabbit eyes", "setting": "[1]; solution of 10%", "value": "not to be toxic or irritating"}]}, {"molecule": "CC(O)COC[C@H]1O[C@@H]2O[C@H]3[C@H](O)[C@@H](O)[C@@H](O[C@H]4[C@H](O)[C@@H](O)[C@@H](O[C@H]5[C@H](O)[C@@H](O)[C@@H](O[C@H]6[C@H](O)[C@@H](O)[C@@H](O[C@H]7[C@H](O)[C@@H](O)[C@@H](O[C@H]8[C@H](O)[C@@H](O)[C@@H](O[C@H]1[C@H](O)[C@H]2O)O[C@@H]8COCC(C)O)O[C@@H]7COCC(C)O)O[C@@H]6COCC(C)O)O[C@@H]5COCC(C)O)O[C@@H]4COCC(C)O)O[C@@H]3COCC(C)O", "note": "(stereo partly drawn) [HP-β-CD, Hydroxypropyl-β-cyclodextrin]", "values": [{"measurement": "dissolving the lipid component in drusen", "setting": "[2]; 40 ml of 25%, sections of a cut up human eye", "value": "efficacy in dissolving the lipid component in drusen"}, {"measurement": "change of drusen by H&E staining", "setting": "[2]; 40 ml of different concentrations, eye sections", "value": "no change"}, {"measurement": "removal of mouse brown fat tissue", "setting": "[3]", "value": "able to partially remove mouse brown fat tissue"}, {"measurement": "toxicity or irritation in rabbit eyes", "setting": "[1]; rabbit, in vivo", "value": "not to be toxic or irritating"}]}]}
